Experimental findings from patent publication US7709466B2, “Pyridazinone derivatives, methods for their production and their use as pharmaceuticals” (Sanofi-Aventis Deutschland GmbH, priority 2004, dated 2010) are described below.

This test addresses GSK-3β (Homo sapiens, UniProt P49841). Briefly: GSK-3β activity, AlphaScreen technology, determination of IC50-values. Format: biochemical. The conditions noted are these: human recombinant enzyme, primed glycogen synthase substrate peptide, 10 μM ATP, 60 min at room temperature, triplicate; read-out: GSK3β (μmol). Here is the method:
Functional Measurements for Determination of IC50-Values
GSK-3βGSK-β activity is measured using human recombinant GSK-β and a primed (pre-phosphorylated) substrate peptide (derived from glycogen synthase and containing the phosphorylation sites 3a, b, and c) on basis of the AlphaScreen technology in 384-well plate format (small volume plate, white, GREINER). In a final volume of 11 μl, 2 μl of compound (1 nM-[…] in kinase buffer, DMSO (dimethylsulfoxide) kept constant at 0.9%), 2 μl of GSK-βsolution (0.18 nM) and 2 μl of biot. phospho-glycogen synthase peptide (34 nM) in kinase buffer (20 mM Hepes, pH 7.4, 10 mM MgCl2, […] (ethylenediaminotetraacetate), 1 mM DTT (dithiotriol), 0.1 mg/ml BSA (bovine serum albumin), 10 μM ATP (adenosinetriphosphate)) are incubated at room temperature for 60 min.
On the technique in general: Bead proximity is the source of the signal in Alpha formats.

GSK-3β, sequence (P49841 whole entry): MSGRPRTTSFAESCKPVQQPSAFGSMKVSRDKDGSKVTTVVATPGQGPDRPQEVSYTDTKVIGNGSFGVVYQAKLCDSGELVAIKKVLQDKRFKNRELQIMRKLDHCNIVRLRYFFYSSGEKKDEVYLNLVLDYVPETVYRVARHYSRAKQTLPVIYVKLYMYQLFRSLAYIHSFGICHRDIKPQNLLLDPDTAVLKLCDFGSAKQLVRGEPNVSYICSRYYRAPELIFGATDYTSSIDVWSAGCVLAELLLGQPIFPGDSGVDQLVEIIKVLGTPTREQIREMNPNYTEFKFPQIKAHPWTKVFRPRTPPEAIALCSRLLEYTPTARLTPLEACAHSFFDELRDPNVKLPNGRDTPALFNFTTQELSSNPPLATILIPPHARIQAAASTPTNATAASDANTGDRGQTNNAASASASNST

In the case of `Cn1cc(-c2c(-c3cc(-c4ccncc4)n[nH]c3=O)[nH]c3ccccc23)cn1` [Example 133, 4-[3-(1-Methyl-1H-pyrazol-4-yl)-1H-indol-2-yl]-6-pyridin-4-yl-2H-pyridazin-3-one], the IC50 was 7 nM.

On to `O=c1[nH]nc(-c2ccncc2)cc1-c1cc2ccc(CN3CCN(C4CC4)CC3)cc2[nH]1` [Example 65, 4-[6-(4-Cyclopropyl-piperazin-1-ylmethyl)-1H-indol-2-yl]-6-pyridin-4-yl-2H-pyridazin-3-one], for which the IC50 stood at 4 nM.

As to `CN(Cc1ccc2cc(-c3cc(-c4ccncc4)n[nH]c3=O)[nH]c2c1)C1CCN(C2CC2)CC1` [Example 89, 4-(6-{[(1-Cyclopropyl-piperidin-4-yl)-methyl-amino]-methyl}-1H-indol-2-yl)-6-pyridin-4-yl-2H-pyridazin-3-one], the IC50 worked out at 12 nM.

Take `O=c1[nH]nc(-c2ccncc2)cc1-c1[nH]c2ccccc2c1C1CC1` [Example 118, 4-(3-Cyclopropyl-1H-indol-2-yl)-6-pyridin-4-yl-2H-pyridazin-3-one]: the IC50 turned out to be 11 nM.

With `O=c1[nH]nc(-c2ccn[nH]2)cc1-c1cc2ccccc2[nH]1` [Example 147, 4-(1H-Indol-2-yl)-6-(2H-pyrazol-3-yl)-2H-pyridazin-3-one], the IC50 stood at 2000 nM.

On to `Cn1cc(-c2cc(-c3cc4ccccc4[nH]3)c(=O)[nH]n2)cn1` [Example 126, 4-(1H-Indol-2-yl)-6-(1-methyl-1H-pyrazol-4-yl)-2H-pyridazin-3-one], for which the IC50 is 1500 nM.

`CC(NC1CCN(C2CC2)CC1)c1ccc2cc(-c3cc(-c4ccncc4)n[nH]c3=O)[nH]c2c1` (stereo not shown) [Example 165, 4-{6-[1-(1-Cyclopropyl-piperidin-4-ylamino)-ethyl]-1H-indol-2-yl}-6-pyridin-4-yl-2H-pyridazin-3-one]: the IC50 turned out to be 18 nM.

`Cc1cc(-c2cc(-c3[nH]c4ccccc4c3-c3c[nH]c(=O)[nH]c3=O)c(=O)[nH]n2)cc(C)c1O` [Example 176, 5-{2-[6-(4-Hydroxy-3,5-dimethyl-phenyl)-3-oxo-2,3-dihydro-pyridazin-4-yl]-1H-indol-3-yl}-1H-pyrimidine-2,4-dione]: the IC50 was found to be 78 nM.

`Cc1cc(-c2cc(-c3cc4ccccc4[nH]3)c(=O)[nH]n2)cc(C)c1O` [Example 6, 6-(4-Hydroxy-3,5-dimethyl-phenyl)-4-(1H-indol-2-yl)-2H-pyridazin-3-one]: the IC50 amounted to 590 nM.

Regarding `CN1CCN(Cc2ccc3cc(-c4cc(-c5cccc(O)c5)n[nH]c4=O)[nH]c3c2)CC1` [Example 156, 6-(3-Hydroxy-phenyl)-4-[6-(4-methyl-piperazin-1-ylmethyl)-1H-indol-2-yl]-2H-pyridazin-3-one], the IC50 worked out at 21 nM.

As for `COc1ccc2[nH]c(-c3cc(-c4ccncc4)n[nH]c3=O)cc2n1` [Example 116, 4-(5-Methoxy-1H-pyrrolo[3,2-b]pyridin-2-yl)-6-pyridin-4-yl-2H-pyridazin-3-one], the IC50 is 7 nM.

On to `O=c1[nH]nc(-c2ccncc2)cc1-c1[nH]c2ccccc2c1CN1CCOCC1` [Example 11, 4-(3-Morpholin-4-ylmethyl-1H-indol-2-yl)-6-pyridin-4-yl-2H-pyridazin-3-one], for which the IC50 is 102 nM.

For the molecule `O=c1[nH]nc(-c2ccncc2)cc1-c1[nH]c2ccccc2c1Cl` [Example 26, 4-(3-Chloro-1H-indol-2-yl)-6-pyridin-4-yl-2H-pyridazin-3-one], the IC50 is 25 nM.

For the molecule `O=C(O)[C@@H]1CCCN1Cc1ccc2cc(-c3cc(-c4ccncc4)n[nH]c3=O)[nH]c2c1` [Example 74, (S)-1-[2-(3-Oxo-6-pyridin-4-yl-2,3-dihydro-pyridazin-4-yl)-1H-indol-6-ylmethyl]-pyrrolidine-2-carboxylic acid], the IC50 was determined as 10 nM.

For `O=c1[nH]nc(-c2ccncc2)cc1-c1cc2ccc(CNC3CC3)cc2[nH]1` [Example 87, 4-(6-Cyclopropylaminometh-yl-1H-indol-2-yl)-6-pyridin-4-yl-2H-pyridazin-3-one], the IC50 is 14 nM.

Turning to `Cc1cc(-c2cc(-c3cc4ncccc4[nH]3)c(=O)[nH]n2)cc(C)c1O` [Example 180, 6-(4-Hydroxy-3,5-dimethyl-phenyl)-4-(1H-pyrrolo[3,2-b]pyridin-2-yl)-2H-pyridazin-3-one], the IC50 was 18 nM.
